Experimental data: publication PMC3995012, “The Cyanobactin Heterocyclase Enzyme: A Processive Adenylase That Operates with a Defined Order of Reaction” (Angewandte Chemie (International Ed. in English), 2013)
Entries after “also recorded” stand apart in the source; their conditions may differ. Like-named read-outs stand apart in the source and are kept apart here.

Legend:
[1] = system: TruD; assay: Heterocyclization reactions analysed by MS (ESI, MALDI, fragmentation); type: biochemical, Prochloron spp.; conditions: for use as nucleotide cofactor for heterocyclization of PatE2 by TruD: PatE2 with TruD, LC-MS and HSQC NMR of products
Protocol: for 20 min followed by passage through a 0.45 "m filter. The cleared lysate was applied to a Ni-sepharose FF column (GE Healthcare) equilibrated with urea lysis buffer and protein eluted with urea lysis buffer containing 250 mM imidazole. The eluate was then supplemented with 10 mM DTT and incubated at room temperature for 30 min before size-exclusion chromatography (Superdex 75, GE Healthcare) in 150 mM NaCl, 10 mM HEPES pH 7.4, 1 mM TCEP. Peak fractions were pooled and […]
PatE for NMR studies was produced as above, except that E. coli were grown in M9 minimal medium ,*- prepared with 15NH4Cl (Sigma) and additionally with 13C6-glucose (Sigma) for doubly labeled protein. Cells were grown to an optical density at 600 nm of 0.6, at which point expression was induced by addition of 0.5 mM IPTG and grown over night at 30 °C.
Heterocyclization reactions
For all heterocyclization reactions for MS analysis, 100 µM substrate (PatE, PatE mutants and peptides) was incubated with 0.5 µM enzyme in heterocyclization buffer (150 mM NaCl, 10 mM HEPES pH 7.4, 1 mM TCEP, 5 mM ATP, 5 mM MgCl2) for 60 min, 70 min or 16 h at 37 °C. Samples were analyzed by ESI or MALDI MS (LCT, Micromass or 4800 MALDI TOF/TOF Analyzer, ABSciex). […]
For heterocyclization reactions to be monitored by NMR the PatE concentration was increased to 200 µM and 5 µM TruD was used and the incubation temperature reduced to 10 °C. For reaction endpoints analyzed by 31P NMR samples were […]
The assay is based on coupling the TruD-dependent formation of AMP to the lactate dehydrogenase oxidation decay of NADH with NADH concentration monitored by 340 nm absorbance. […]
each added to the assay in this order. […] The decay of NADH concentration were recorded for 40 min and calculated by using extinction coefficient for NADH (#340 = […]
MALDI MS was acquired using a 4800 MALDI TOF/TOF Analyzer (ABSciex, Foster City, CA) equipped with a Nd:YAG 355 nm laser in linear mode and calibrated using the [M+H]+ and [M+2H]2+ peaks of ubiquitin. The spot was analyzed in positive MS mode between 3000 and 10000 m/z, by averaging 1000 laser spots. […]

[2] = molecular target: TruD; assay: ITC, injection of nucleosides into TruD solutions; type: binding, Prochloron spp.; conditions: for Kd: one-site model
Protocol: (§1) TruD solutions. The top panels show raw data representing the response to injections, the bottom panels show integrated heats of injections (!) and the best fit (— ) to the […]
(§2) nucleoside. […]
(§3) ITC experiments were carried out using a VP-ITC instrument (MicroCal) in TruD sample buffer (150 mM NaCl, 10 mM HEPES pH 7.4, 1 mM TCEP) at 20 or 25 °C.
(§4) Protein concentrations were determined using absorbance at 280 nm and predicted extinction coefficients (ProtParam, ExPASy) used. The concentration of PatEY53A, which lacks absorbance at 280 nm, was based on absorbance at 230 nm. All solutions were dialyzed overnight. Nucleotides and the #25 peptide were dissolved in TruD sample buffer and the pH was adjusted with small amounts of 1 M NaOH to match the buffer. Cell and syringe solutions were degassed at 18 or 23 °C for 15 min.
Titrations were performed as follows: one injection of 2 µl followed by injections of 5-10 µl at an injection speed of 0.5 µl/min. The stirring speed was 307 rpm; the delay between the injections was 4-6 min. To take into account heats of dilution, blank titrations were performed by injecting ligand solution into TruD sample buffer and the averaged heat of dilution was subtracted from the main experiment. Blank titrations were omitted in cases of saturated binding where the averaged residual signal of the last injections was used to determine the heat of dilution. Raw data were processed using MicroCal Origin software. […]
(§5) NMR experiments were performed at 10 °C on a Bruker DRX500 spectrometer equipped with a 5mm TXIz probe. […] Aliquots of 646 µM TruD were added to final concentrations of 50, 100 and 150 µM, and HSQCs were recorded after each addition. For heterocyclization monitoring, the samples contained 200 µM u-15N-PatE precursor peptide and were incubated at 10 °C with 5 µM TruD in heterocyclization buffer with 5% D2O, and spectra were recorded at progressively longer intervals (initially 0.5 h, then 1 h, then 2 h). […]
(§6) For sequential assignment, a 1.0 mM sample of u-13C, 15N-PatE precursor peptide in heterocyclization buffer was prepared. […] Equivalent spectra were recorded for fully heterocyclized u-13C, 15N-PatE (concentration 1.0 mM) and a sample where the enzymatic transformation was interrupted after 8 h by gel filtration on a Superdex S75 column (GE Healthcare) in TruD sample buffer (see ITC experimental section), thus allowing assignment of the reaction intermediate. All spectra were processed with NMRPipe ,$- and analyzed with CCPN Analysis 2.1 ,%-.
31P NMR experiments were performed at 10 °C on a Bruker AVANCE III spectrometer equipped with a 5mm BBFO+ (Smart) probe and required the substitution of sample buffer TCEP with DTT. […] 31P NMR spectra were recorded with broadband power-gated 1H decoupling and relaxation delay D1 = 1.5s. […]

[3] = molecular target: T1, TruD (uncultured Prochloron sp. 06037A, UniProt B2KYG8); assay: Isothermal titration calorimetry (VP-ITC), nucleotide injected into TruD in 150 mM NaCl, 10 mM HEPES pH 7.4, 1 mM TCEP at 20 or 25 °C, fitted to a one-site model.; type: binding
T1 construct: codon-optimized full-length, N-terminal His6-tag removed by TEV protease, expressed in E. coli BL21 (DE3); homodimer with structural Zn
T1 sequence (B2KYG8 2-781): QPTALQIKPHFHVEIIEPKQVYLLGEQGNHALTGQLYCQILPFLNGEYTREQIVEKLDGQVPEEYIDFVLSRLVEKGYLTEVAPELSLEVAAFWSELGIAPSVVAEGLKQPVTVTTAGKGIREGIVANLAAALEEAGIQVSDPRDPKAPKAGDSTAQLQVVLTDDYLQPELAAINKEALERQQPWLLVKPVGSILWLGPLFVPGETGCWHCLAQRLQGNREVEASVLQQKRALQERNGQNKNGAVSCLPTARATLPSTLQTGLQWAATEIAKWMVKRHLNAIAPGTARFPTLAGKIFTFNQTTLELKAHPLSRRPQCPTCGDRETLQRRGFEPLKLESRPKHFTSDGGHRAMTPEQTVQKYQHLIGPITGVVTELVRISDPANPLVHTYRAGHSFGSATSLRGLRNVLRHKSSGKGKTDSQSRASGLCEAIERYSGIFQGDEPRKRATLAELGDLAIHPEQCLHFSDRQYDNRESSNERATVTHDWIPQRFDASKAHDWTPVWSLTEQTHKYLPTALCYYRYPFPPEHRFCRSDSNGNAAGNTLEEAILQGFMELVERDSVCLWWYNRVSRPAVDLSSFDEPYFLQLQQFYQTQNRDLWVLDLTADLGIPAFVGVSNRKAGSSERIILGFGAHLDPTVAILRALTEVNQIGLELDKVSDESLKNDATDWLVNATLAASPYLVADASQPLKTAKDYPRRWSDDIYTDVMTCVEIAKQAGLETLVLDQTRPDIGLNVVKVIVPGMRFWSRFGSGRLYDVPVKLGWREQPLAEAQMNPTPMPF
Protocol: as §1, §2, §3, §4
Titrations were performed as follows: one injection of 2 µl followed by injections of 5-10 µl at an injection speed of 0.5 µl/min. The stirring speed was 307 rpm; the delay between the injections was 4-6 min. […]
as §5
as §6, with “,%-. […]” for “,%-.”

[4] = VP-ITC, 150 mM NaCl, 10 mM HEPES pH 7.4, 1 mM TCEP, 20 or 25 °C, read-out: KD

Q: For `Nc1nc2c(ncn2[C@@H]2O[C@H](COP(=O)(O)OP(=O)(O)OP(=O)(O)O)[C@@H](O)[C@H]2O)c(=O)[nH]1` [GTP], which “use as nucleotide cofactor for heterocyclization of PatE2 by TruD” value [1] is on record?
A: can catalyze heterocyclization of cysteine

Q: Which Kd ([2]; ADP decomposes slowly, only the rapidly emerging endothermic parts of the ITC signals analysed, read-out: apparent KD) does the source give for `Nc1ncnc2c1ncn2[C@@H]1O[C@H](COP(=O)(O)OP(=O)(O)O)[C@@H](O)[C@H]1O` [ADP] here?
A: 20 µM

Q: How did the “processing (heterocyclization of cysteines) by TruD” value ([1]; 100 µM substrate, 0.5 µM enzyme, 150 mM NaCl, 10 mM HEPES pH 7.4, 1 mM TCEP, 5 mM ATP, 5 mM MgCl2, 60 min, 70 min or 16 h at 37 °C, ESI or MALDI MS) turn out when “ITACITFC [core peptide, the eight-residue core peptide itself]” was run?
A: No reaction

Q: With `Nc1ncnc2c1ncn2[C@@H]1O[C@H](COP(=O)(O)OP(=O)(O)OP(=O)(O)O)[C@@H](O)[C@H]1O` [ATP, adenosine 5'-triphosphate] as the compound, how does the Kd [3] read?
A: 19 µM

Q: How did the “binding to TruD in ITC experiments” value ([2]; injection into a TruD solution) turn out when `Cc1cn([C@H]2C[C@H](O)[C@@H](COP(=O)(O)OP(=O)(O)OP(=O)(O)O)O2)c(=O)[nH]c1=O` [dTTP] was run?
A: not report binding under these conditions; also recorded: does not bind

Q: And the “use as nucleotide cofactor for heterocyclization of PatE2 by TruD” value [1]?
A: can catalyze heterocyclization of cysteine

Q: How did the Kd ([3]; read-out: KD) turn out when `Nc1ncnc2c1ncn2[C@@H]1O[C@H](COP(=O)(O)OP(=O)(O)O)[C@@H](O)[C@H]1O` [ADP, adenosine 5'-diphosphate] was run?
A: 20 µM

Q: How did the Kd [2, 4] turn out when `Nc1ncnc2c1ncn2[C@@H]1O[C@H](COP(=O)(O)O)[C@@H](O)[C@H]1O` [AMP] was run?
A: 12 µM

Q: For `Nc1ncnc2c1ncn2[C@@H]1O[C@H](COP(=O)(O)OP(=O)(O)OP(=O)(O)O)[C@@H](O)[C@H]1O` [ATP], which Kd [2, 4] is on record?
A: 19 µM

Q: With `Nc1ncnc2c1ncn2[C@@H]1O[C@H](COP(=O)(O)O)[C@@H](O)[C@H]1O` [AMP, adenosine 5'-monophosphate] as the compound, how does the Kd ([3]; read-out: KD) read?
A: 12 µM
